Results on two compounds are retold here after patent publication US8389739B1, “Modulators of retinoid-related orphan receptor gamma” (Orphagen Pharmaceuticals, priority 2006, dated 2013).

One data set addresses T1, RORα (mRORα) (Mus musculus, UniProt P51448).
T1 construct: mRORα (NR1F1, aa 266-523); expressed in transfected cells; host or cells: CHO cells, transient transfection
Briefly: Transcriptional assay of RORα as GAL4 hybrid. The class given is cell-based. The settings on record: same format as the GAL4-RORγ assay. Here is the method:
This example also describes several additional tests that were commonly performed to confirm the authenticity of a hit to RORγ. These tests also verified the validity of the transcriptional and biochemical assays used. […] In some cases, close analogs of a confirmed hit were obtained by synthesis or purchase from a commercial source. The series of compounds related to the confirmed hit was then tested in the biochemical and transcriptional assays. The rank order of the potency of the compounds was then compared. […] The data imply in turn that the compounds are binding to the same binding pocket. […]
Four hours after transfection, cells were dislodged with trypsin and seeded into a 384-well plate at 8,000 cells/well using a Titertek Multidrop 384. […] After incubation for 2 hours at 37 degrees centigrade, the conversion of resazurin to resorufin was measured by fluorescence (excitation at 570 nm and emission at 615 nm). […] Percent viability was determined as 2 hour fluorescence, minus background at t=0 hours, normalized to DMSO controls. […] Luminescence is detected with a Victor 2-V plate reader (Perkin-Elmer) and normalized to luciferase activity of DMSO control wells alone.

Data set [1] concerns EAE. The settings on record: mouse, in vivo; cited from earlier work.
Another data set deals with CHO cells. Briefly: Cytotoxicity in CHO cells (resazurin conversion). The class given is cell-based, Chinese Hamster. Here is the method: Four hours after transfection, cells were dislodged with trypsin and seeded into a 384-well plate at 8,000 cells/well using a Titertek Multidrop 384. Edge effects within the 384-well plate were minimized by leaving plates at room temperature for 30 min so that cells plated evenly within each well (Lundholt, Scudder et al. 2003). Plates are maintained at 37° C. in a humidified atmosphere with 7% CO2 overnight. […] Approximately 40 hours later, cytotoxicity in the assay well was characterized by addition of the dye resazurin (O'Brien, Wilson et al. 2000) to a final concentration of 3 μM. After incubation for 2 hours at 37 degrees centigrade, the conversion of resazurin to resorufin was measured by fluorescence (excitation at 570 nm and emission at 615 nm). […] Percent viability was determined as 2 hour fluorescence, minus background at t=0 hours, normalized to DMSO controls. For detection of luciferase activity, media was removed from plates after the measurement of resazurin conversion, and SteadyLite luciferase reagent (Perkin-Elmer) was added (30 μl/well). Luminescence is detected with a Victor 2-V plate reader (Perkin-Elmer) and normalized to luciferase activity of DMSO control wells alone.
Background: Resazurin is reduced to fluorescent resorufin, in cell work by metabolically active cells.

For data set [2], the system named is EAE. Briefly: EAE model, C57BL/6 mice immunized with MOG35-55. The settings on record: for median day of onset of symptoms (clinical score 1 or greater): oral gavage twice a day, corn oil vehicle day 18. The class given is in vivo.
The test system of data set [3] is splenic TH-17 and TH1 cells. Briefly: Splenic TH-17 and TH1 cells in MOG-immunized C57BL/6 mice. The class given is in vivo. Conditions: 100 mg/kg oral gavage for 9 days. Here is the method: C57BL/6 female mice were immunized with 150 μg […] on study day 0. Mice were treated with either OR-1050 at 100 mg/kg or with vehicle (HRC-6) by oral gavage for 9 days starting day O, Splenocytes were collected at Day 9 and stained for TH-17 (CD4^+CD8^−IL17^+) and TH1 (CD4^+CD8^−IFNγ^+) cells. Statistics were performed by Student's t-test.

Entries after “also recorded” stand apart in the source; their conditions may differ.

T1 sequence (P51448 266-523): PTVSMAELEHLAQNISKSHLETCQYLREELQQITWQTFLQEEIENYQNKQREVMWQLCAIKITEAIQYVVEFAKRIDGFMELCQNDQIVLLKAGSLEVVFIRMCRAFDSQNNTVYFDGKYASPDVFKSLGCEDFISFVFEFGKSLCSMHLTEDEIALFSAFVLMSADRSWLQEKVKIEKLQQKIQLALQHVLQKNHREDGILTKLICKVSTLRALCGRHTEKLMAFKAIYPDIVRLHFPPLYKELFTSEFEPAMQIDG

Take `O=S(=O)(c1ccccc1)N(CC(F)(F)F)c1ccc(C(O)(C(F)(F)F)C(F)(F)F)cc1` [Compound T0901317, N-(2,2,2-Trifluoro-ethyl)-N-[4-(2,2,2-trifluoro-1-hydroxy-1-trifluoromethyl-ethyl)-phenyl]-benzenesulfonamide, reference compound]: the “effect on the transcription of RORα” value at RORα (mRORα) is reported as “no effects”. Besides, the “development of murine EAE” value with EAE [1] is “inhibit the development of murine EAE”. Further, the “concentration not cytotoxic to CHO cells” value in the data set with CHO cells was below 10 µM.
Take `CCN(c1ccc(C(O)(C(F)(F)F)C(F)(F)F)cc1)S(=O)(=O)c1ccc([N+](=O)[O-])cc1` [OR-1050, N-Ethyl-4-nitro-N-[4-(2,2,2-trifluoro-1-hydroxy-1-trifluoromethyl-ethyl)-phenyl]-benzenesulfonamide]: the “median day of onset of symptoms (clinical score 1 or greater)” value in the data set with EAE [2] (30 mg/kg total daily dose) came out at 16 days; in the data set on EAE [2] (100 mg/kg total daily dose, p<0.05), 26 days. The “onset of EAE, in words” value with EAE [2] (100 mg/kg OR-1050 per day versus vehicle) was “slows the onset of EAE; also recorded: significantly (p<0.05) delayed”. The “progress of disease and weight loss, in words” value in the data set on EAE [2] (high dose (50 mg/kg, 2× per day), FIG. 11A, 11B) is “inhibits progress of the disease and weight loss”. Also, in the data set on EAE [2] (high dose, FIG. 11C, p<0.07, Mann-Whitney), the “inflammatory infiltration in the spinal cord” value was “reduced”. Also, at RORα (mRORα), the “effect on the transcription of RORα” value is recorded as “no effects”. Besides, the “change in TH1 cells” value in data set [3] is given as “no change in TH1 cells”. Also, in data set [3] (HRC-6, p<0.05, n=8-10), the “inhibition of splenic TH-17 cells” value was found to be 29%. The “concentration not cytotoxic to CHO cells” value in the data set on CHO cells amounted to 50 µM.
